Test system: Plasmodium berghei
Assay: Luciferase/luciferin-expressing antifolate-resistant parasites were used to infect a culture of HepG2 cells that were pre-incubated with compounds. Infected hepatocytes emit light due to the luciferase reaction. Assay results are presented as the percent inhibition of light emission compared to control. […]
Assay type: functional
Conditions: sporozoite; for IC90: read-out: LUCIFERASE INFECTION ASSAY - IC90

| SMILES | IC90 [µM] | also measured |
| --- | --- | --- |
| CCCNC(=O)c1nnsc1S(=O)(=O)c1ccc(Cl)cc1 | > 9.54 | IC50 (HEPG2TOX_HILL_SLOPE 12.7, HEPG2TOX_R_SQUARED 0.778, PBLUC_HILL_SLOPE 22.3, PBLUC_R_SQUARED 0.0764, read-out: LUCIFERASE INFECTION ASSAY - IC50): 9.02 µM |
| O=C(Nc1ccc(OC(F)(F)F)cc1)c1ccc2c(c1)no[n+]2[O-] | 7.89 | IC50 (HEPG2TOX_HILL_SLOPE 13, HEPG2TOX_R_SQUARED 0.448, PBLUC_HILL_SLOPE 2.82, PBLUC_R_SQUARED 0.324, read-out: LUCIFERASE INFECTION ASSAY - IC50): 3.62 µM |
| Oc1c(C(c2ccccc2Cl)N2CCCC2)ccc2cccnc12 (configuration not stated) | 4.97 | IC50 (HEPG2TOX_HILL_SLOPE 12.7, HEPG2TOX_R_SQUARED 0.0314, PBLUC_HILL_SLOPE 8.39, PBLUC_R_SQUARED 0.486, read-out: LUCIFERASE INFECTION ASSAY - IC50): 3.83 µM |
| CC(C)c1c(C(=O)NNC(=O)c2ccc3ccccc3n2)cnn1-c1ccccc1 | 3.77 | IC50 (HEPG2TOX_HILL_SLOPE 12.8, HEPG2TOX_R_SQUARED 0.528, PBLUC_HILL_SLOPE 15.6, PBLUC_R_SQUARED 0.425, read-out: LUCIFERASE INFECTION ASSAY - IC50): 3.28 µM |
| CCOc1c(Br)cc(/C=C2/C(=O)N(C)c3ccccc32)cc1OC | > 10 | IC50 (HEPG2TOX_HILL_SLOPE 13, HEPG2TOX_R_SQUARED 0.388, read-out: LUCIFERASE INFECTION ASSAY - IC50): > 10 µM |
| O=C(NCc1ccco1)C1Cc2c(-c3ccccc3)ccnc2O1 (configuration not stated) | 3.73 | IC50 (HEPG2TOX_HILL_SLOPE 12.7, HEPG2TOX_R_SQUARED 0.925, PBLUC_HILL_SLOPE 2.58, PBLUC_R_SQUARED 0.503, read-out: LUCIFERASE INFECTION ASSAY - IC50): 1.59 µM |
| CN(C)c1ccc(CNCCC(c2ccc(F)cc2)c2ccco2)cc1 (configuration not stated) | 1.83 | IC50 (HEPG2TOX_HILL_SLOPE 13.3, HEPG2TOX_R_SQUARED 0.508, PBLUC_HILL_SLOPE 4.7, PBLUC_R_SQUARED 0.649, read-out: LUCIFERASE INFECTION ASSAY - IC50): 1.15 µM |
| COc1ccc(-c2cc3[nH]c(NCc4ccccc4)nc3cn2)cc1OC | 5.34 | IC50 (HEPG2TOX_HILL_SLOPE 12.7, HEPG2TOX_R_SQUARED 0.819, PBLUC_HILL_SLOPE 80.4, PBLUC_R_SQUARED 0.69, read-out: LUCIFERASE INFECTION ASSAY - IC50): 5.2 µM |
| CS(=O)(=O)c1ccc(C(=O)OC(C(=O)c2c[nH]c3ccccc23)c2ccccc2)cc1[N+](=O)[O-] (configuration not stated) | 7.61 | IC50 (HEPG2TOX_HILL_SLOPE 12.6, HEPG2TOX_R_SQUARED 0.833, PBLUC_HILL_SLOPE 19.7, 53.6, PBLUC_R_SQUARED 0.857, 0.714, read-out: LUCIFERASE INFECTION ASSAY - IC50): 7.02 µM |
| O=C(Nc1ccc2c(c1)OC1(CCCC1)O2)N1CCN(c2ccc(O)cc2)CC1 | 4.23 | IC50 (HEPG2TOX_HILL_SLOPE 12.8, HEPG2TOX_R_SQUARED 0.476, PBLUC_HILL_SLOPE 2.26, PBLUC_R_SQUARED 0.894, read-out: LUCIFERASE INFECTION ASSAY - IC50): 1.6 µM |
| CS(=O)(=O)c1ncc(Cl)c(C(=O)Nc2nc(-c3cc(F)ccc3F)cs2)n1 | 6.15 | IC50 (HEPG2TOX_HILL_SLOPE 13.3, HEPG2TOX_R_SQUARED 0.702, PBLUC_HILL_SLOPE 67.7, PBLUC_R_SQUARED 0.588, read-out: LUCIFERASE INFECTION ASSAY - IC50): 5.95 µM |
| Cc1c(C)n(-c2nc3ccccc3s2)c2ncnc(NCCCN(C)C)c12 | > 8.67 | IC50 (HEPG2TOX_HILL_SLOPE 12.8, HEPG2TOX_R_SQUARED 0.501, PBLUC_HILL_SLOPE 2.59, PBLUC_R_SQUARED 0.498, read-out: LUCIFERASE INFECTION ASSAY - IC50): 7.19 µM |
| CNC(=O)c1cccc(-c2ccc3ncc(-c4ccc(CO)cc4)n3n2)c1 | > 10 | IC50 (HEPG2TOX_HILL_SLOPE 13.1, HEPG2TOX_R_SQUARED 0.574, PBLUC_HILL_SLOPE 1.06, PBLUC_R_SQUARED 0.813, read-out: LUCIFERASE INFECTION ASSAY - IC50): 1.39 µM |
| COc1ccc(-c2nn(-c3ccccc3)cc2/C=N/Nc2ncc(C(F)(F)F)cc2Cl)cc1OC | 2.33 | IC50 (HEPG2TOX_HILL_SLOPE 13.4, HEPG2TOX_R_SQUARED 0.529, PBLUC_HILL_SLOPE 3.64, PBLUC_R_SQUARED 0.734, read-out: LUCIFERASE INFECTION ASSAY - IC50): 1.27 µM |
| CC(=O)OC1CCC2(C)C(CCC3C4CCC(C(C)C(=O)OCC(=O)c5ccccc5)C4(C)CC(=O)C32)C1 (configuration not stated) | 0.271 | IC50 (HEPG2TOX_HILL_SLOPE 12.9, HEPG2TOX_R_SQUARED 0.919, PBLUC_HILL_SLOPE 10.6, PBLUC_R_SQUARED 0.537, read-out: LUCIFERASE INFECTION ASSAY - IC50): 0.22 µM |
| CC(=O)Nc1cccc(-c2ccc3c(-c4ccccc4Oc4ccccc4)[nH]nc3n2)c1 | > 7.85 | IC50 (HEPG2TOX_HILL_SLOPE 12.7, HEPG2TOX_R_SQUARED 0.516, PBLUC_HILL_SLOPE 10.9, PBLUC_R_SQUARED 0.441, read-out: LUCIFERASE INFECTION ASSAY - IC50): 6.81 µM |

| SMILES | IC90 [µM] | also measured |
| --- | --- | --- |
| CC(=O)c1cccc(NC(=O)Nc2ccc3nc(Cc4ccccc4)nn3c2)c1 | 4.13 | IC50 (HEPG2TOX_HILL_SLOPE 12.7, HEPG2TOX_R_SQUARED 0.848, PBLUC_HILL_SLOPE 19.5, PBLUC_R_SQUARED 0.366, read-out: LUCIFERASE INFECTION ASSAY - IC50): 3.69 µM |
| Cc1cc(C(=O)C(C)OC(=O)CCn2cnc3c(cnn3C)c2=O)c(C)n1-c1ccc(Cl)cc1 (configuration not stated) | > 10 | IC50 (HEPG2TOX_HILL_SLOPE 12.8, HEPG2TOX_R_SQUARED 0.861, read-out: LUCIFERASE INFECTION ASSAY - IC50): > 10 µM |
| CC1CCc2[nH]c3ccc(C(=O)NCc4ccccc4CN(C)C)cc3c2C1 (configuration not stated) | > 10 | IC50 (HEPG2TOX_HILL_SLOPE 12.7, HEPG2TOX_R_SQUARED 0.279, PBLUC_HILL_SLOPE 14.5, PBLUC_R_SQUARED 0.467, read-out: LUCIFERASE INFECTION ASSAY - IC50): 9.09 µM |
| CCCCCCCCCCCCCCCCCC1=[N+](c2ccccc2)C(Nc2ccccc2)CN1c1ccccc1 (configuration not stated) | > 5.61 | IC50 (HEPG2TOX_HILL_SLOPE 13, HEPG2TOX_R_SQUARED 0.218, read-out: LUCIFERASE INFECTION ASSAY - IC50): > 5.61 µM |
| CN1CCN(c2ccc(NC(=O)c3cc4c(s3)-c3ccccc3CC4)cn2)CC1 | 7.61 | IC50 (HEPG2TOX_HILL_SLOPE 13, HEPG2TOX_R_SQUARED 0.777, PBLUC_HILL_SLOPE 77.5, 23.4, PBLUC_R_SQUARED 0.0252, 0.733, read-out: LUCIFERASE INFECTION ASSAY - IC50): 7.13 µM |
| COc1ccc(NS(=O)(=O)c2cc(NCc3ccccc3C)cc(C(=O)NCCN(C)C)c2)cc1 | > 6.64 | IC50 (HEPG2TOX_HILL_SLOPE 13.2, HEPG2TOX_R_SQUARED 0.729, PBLUC_HILL_SLOPE 3.39, PBLUC_R_SQUARED 0.479, read-out: LUCIFERASE INFECTION ASSAY - IC50): 4.55 µM |
| CCN(CC(=O)Nc1ccccc1C(F)(F)F)CC(=O)N1CCc2ccccc21 | 7.42 | IC50 (HEPG2TOX_HILL_SLOPE 12.9, HEPG2TOX_R_SQUARED 0.752, PBLUC_HILL_SLOPE 284, PBLUC_R_SQUARED 0.135, read-out: LUCIFERASE INFECTION ASSAY - IC50): 7.36 µM |
| O=C1C(=O)N(Cc2cccc(Cl)c2)c2c1cccc2C(F)(F)F | 6.09 | IC50 (HEPG2TOX_HILL_SLOPE 13.2, HEPG2TOX_R_SQUARED 0.969, PBLUC_HILL_SLOPE 2.5, PBLUC_R_SQUARED 0.616, read-out: LUCIFERASE INFECTION ASSAY - IC50): 2.53 µM |
| CC(Sc1nc2ccccc2c(=O)n1-c1ccccc1F)c1nnc(-c2cccs2)o1 (configuration not stated) | > 10 | IC50 (HEPG2TOX_HILL_SLOPE 12.8, HEPG2TOX_R_SQUARED 0.22, PBLUC_HILL_SLOPE 16.4, PBLUC_R_SQUARED 0.485, read-out: LUCIFERASE INFECTION ASSAY - IC50): 8.88 µM |
| CC(C)Oc1ccc(S(=O)(=O)N2CCOCC2)cc1NC(=O)c1cc(-c2ccccc2)n[nH]1 | 4.44 | IC50 (HEPG2TOX_HILL_SLOPE 13.1, HEPG2TOX_R_SQUARED 0.378, PBLUC_HILL_SLOPE 12.6, PBLUC_R_SQUARED 0.276, read-out: LUCIFERASE INFECTION ASSAY - IC50): 3.73 µM |
| COc1ccc(CN2C(=O)c3ccccc3C(C=NNc3nc(=O)cc(C)[nH]3)C2=O)cc1 (configuration not stated) | 3.8 | IC50 (HEPG2TOX_HILL_SLOPE 12.8, HEPG2TOX_R_SQUARED 0.611, PBLUC_HILL_SLOPE 3.06, PBLUC_R_SQUARED 0.688, read-out: LUCIFERASE INFECTION ASSAY - IC50): 1.85 µM |
| CC(C)c1ccc(NC(=O)Nc2ccc3nc(-c4ccccn4)nn3c2)cc1 | 4.2 | IC50 (HEPG2TOX_HILL_SLOPE 13, HEPG2TOX_R_SQUARED 0.696, PBLUC_HILL_SLOPE 14.3, PBLUC_R_SQUARED 0.36, read-out: LUCIFERASE INFECTION ASSAY - IC50): 3.6 µM |
| CCCN1C/C(=C/c2csnn2)C(=O)/C(=C/c2csnn2)C1 | > 10 | IC50 (HEPG2TOX_HILL_SLOPE 13.3, HEPG2TOX_R_SQUARED 0.713, read-out: LUCIFERASE INFECTION ASSAY - IC50): > 10 µM |
| CN(C)c1ccc(-c2cc3c(cn2)nc(NCc2ccccc2F)n3C)cc1 | > 10 | IC50 (HEPG2TOX_HILL_SLOPE 12.8, HEPG2TOX_R_SQUARED 0.633, PBLUC_HILL_SLOPE 3.52, PBLUC_R_SQUARED 0.567, read-out: LUCIFERASE INFECTION ASSAY - IC50): 5.77 µM |
| CCc1nc(CN2CC=C(c3c[nH]c4ccccc34)CC2)cs1 | 7.32 | IC50 (HEPG2TOX_HILL_SLOPE 12.8, HEPG2TOX_R_SQUARED 0.446, PBLUC_HILL_SLOPE 9.90, 7.64, PBLUC_R_SQUARED 0.0237, 0.266, read-out: LUCIFERASE INFECTION ASSAY - IC50): 5.75 µM |

Source: ChEMBL document CHEMBL4483862, “Open-source discovery of chemical leads for next-generation chemoprotective antimalarials” (2018)
